Legend:
[1] = xn = mol fraction of the nth substance listed; settings: 101 kPa, Liquid
[2] = refractive index (Na D-line) (dimensionless); xn = mol fraction of the nth substance listed; settings: 101 kPa, Liquid

Clc1ccccc1Cl [1,2-dichlorobenzene] + C1COCCO1
Settings	mass density, 298.15 K [kg/m3]	mass density, 303.15 K [kg/m3]	mass density, 308.15 K [kg/m3]	refractive index, 298.15 K	refractive index, 303.15 K	refractive index, 308.15 K	speed of sound, 298.15 K [m/s]	viscosity, 298.15 K [mPa·s]	viscosity, 303.15 K [mPa·s]	viscosity, 308.15 K [mPa·s]
[1], x2 = 0	1300.9	1295.4	1289.7	–	–	–	1280	1.324	1.214	1.105
[1], x2 = 0.1025	1278.5	1272.9	1267.3	–	–	–	1287	1.311	1.203	1.095
[1], x2 = 0.203	1255.8	1250.1	1244.5	–	–	–	1293	1.298	1.191	1.085
[1], x2 = 0.2983	1232.9	1227.3	1221.6	–	–	–	1299	1.285	1.181	1.076
[1], x2 = 0.3965	1208.5	1202.8	1197.1	–	–	–	1305	1.273	1.169	1.066
[1], x2 = 0.4955	1182.5	1176.9	1171.2	–	–	–	1312	1.26	1.158	1.056
[1], x2 = 0.596	1154.9	1149.3	1143.6	–	–	–	1319	1.247	1.147	1.047
[1], x2 = 0.6976	1125.6	1120	1114.3	–	–	–	1325	1.234	1.135	1.037
[1], x2 = 0.7992	1094.7	1089.1	1083.4	–	–	–	1332	1.221	1.124	1.027
[1], x2 = 0.8971	1063.3	1057.7	1051.9	–	–	–	1338	1.209	1.113	1.018
[2], x2 = 0	–	–	–	1.5499	1.5476	1.545	–	–	–	–
[2], x2 = 0.1025	–	–	–	1.5374	1.5333	1.5325	–	–	–	–
[2], x2 = 0.203	–	–	–	1.5269	1.5246	1.5224	–	–	–	–
[2], x2 = 0.2983	–	–	–	1.5171	1.5148	1.5125	–	–	–	–
[2], x2 = 0.3965	–	–	–	1.5048	1.5023	1.4998	–	–	–	–
[2], x2 = 0.4955	–	–	–	1.4924	1.4902	1.4879	–	–	–	–
[2], x2 = 0.596	–	–	–	1.4799	1.4768	1.4738	–	–	–	–
[2], x2 = 0.6976	–	–	–	1.4652	1.4628	1.4604	–	–	–	–
[2], x2 = 0.7992	–	–	–	1.4513	1.4484	1.4455	–	–	–	–
[2], x2 = 0.8971	–	–	–	1.4365	1.4337	1.4308	–	–	–	–

Source: the NIST ThermoML archive (doi:10.1021/je049609w)
